Measurements taken from ChEMBL document CHEMBL1201862, “PubChem BioAssay data set” (2004).
Active and inactive are the calls of the source.

Tests used:
HEK293 [1] = assay: NOD1 signaling inhibitors, primary screen, cell-based, luminescence, uHTS (AID 1578); format: functional; conditions: Homo sapiens
BJ [2] = assay: cytotoxicity toward BJ-TERT fibroblasts, dose response, cell-based, RAS-independent, luminescence (AID 1933); format: functional; conditions: Homo sapiens
HEK293 [3] = assay: cells; format: functional, cell-based; conditions: Homo sapiens
cells [4] = format: functional, cell-based
BJ [5] = assay: cells; format: functional, cell-based; conditions: Homo sapiens
HEK293 [6] = assay: cells; format: functional, cell-based; conditions: Homo sapiens; remark: listed apart in the source
[7] = molecular target: Nucleotide-binding oligomerization domain-containing protein 2 (Homo sapiens, UniProt Q9HC29); assay: NOD2 signaling inhibitors, cell-based, luminescence, uHTS, HEK293 (AID 1566); format: functional
HEK293 [8] = assay: NOD2 signaling inhibitors in MDP-stimulated cells, cell-based, uHTS, luminescence (AID 2001); format: functional; conditions: Homo sapiens
HEK293 [9] = assay: cells; format: functional, cell-based; conditions: Homo sapiens; remark: listed apart in the source
[10] = Luminescence-based dose response cell-based high throughput screening assay for cytotoxic compounds using the IEC-6 intestinal epithelial cell line. [Related pubchem assays: 1858 (Summary AID.), 1825 (Counterscreen.), 1907 (Confirmation screen.)]; format: functional
cells [11] = format: functional, cell-based; remark: listed apart in the source
BJ [12] = assay: cytotoxicity toward BJ-TERT-LT-ST fibroblasts, dose response, cell-based, RAS-independent, luminescence (AID 1935); format: functional; conditions: Homo sapiens;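 also: BJ fibroblasts immortalized with TERT plus LT and ST oncogenes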
[13] = cytotoxicity toward DRD oncogenic fibroblasts, dose response, cell-based, non-viral oncogenic, luminescence (AID 1934); format: functional; conditions: Homo sapiens
Nonstructural protein 1 = Nonstructural protein 1 (Influenza A virus, UniProt Q194T2); format: functional, Influenza A virus (A/California/07/2009(H1N1))
HEK293 [14] = assay: inhibitors of LMP1-driven NF-kB reporter, dose response, cell-based, HEK293, luciferase, cherry-pick (AID 588343); format: functional; conditions: Homo sapiens
INS1 = assay: beta cell apoptosis inhibitors, cytokine rescue, dose response, luminescence, retest (AID 449756); format: functional, cell-based; conditions: Rattus norvegicus;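 also: cell death triggered by IL-1 beta plus TNF-alpha plus IFN-gamma mixture; protective hits raise ATP signal compared with cytokine alone wells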
[15] = Shn3 3'UTR reporter inhibitors, dose response, cell-based, Clone20 osteoblasts, firefly luciferase, cherry-picked (AID 624132); format: functional;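 also: firefly luciferase luminescence from reporter carrying the Shn3 3'UTR in osteoblasts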
[16] = HepG2 cell cytotoxicity, dose response, cytotoxicity control for Shn3 inhibitor project, CellTiter-Glo, cherry-picked (AID 624134); format: functional, cell-based
[17] = control 3'UTR Renilla luciferase suppression, dose response, counter-screen for Shn3 inhibitor project, cell-based, Clone20-Shn3RL, cherry-picked (AID 624133); format: functional
[18] = NIH-3T3 fibroblast cytotoxicity, dose response, cytotoxicity control, cell-based, fluorescence, Alamar Blue, secondary assay (AID 2327); format: functional;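 also: NIH-3T3 mouse fibroblasts cultured with fluconazole at 8 µg/mL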
[19] = C. albicans growth with fluconazole, confirmation, fluorescence, retest (AID 2467); format: functional, cell-based
[20] = cytotoxicity in HPDE-C7 cells, cell-based, fluorescence, HTS (AID 430); format: functional; conditions: Homo sapiens
[21] = inhibitors of intracellular T. cruzi replication, confirmation, NIH3T3 host cells, beta-gal luminescence (AID 2044); format: functional, cell-based;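 also: intracellular parasites grown in NIH/3T3 mouse fibroblasts as host cells; luminescent beta-galactosidase reporter signal from transgenic T. cruzi replicating inside host cells; inhibitors lower the luminescence signal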
[22] = cytotoxicity in KRAS-transformed pancreatic duct cells, primary screen, cell-based, fluorescence, HTS (AID 431); format: functional; conditions: Homo sapiens;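 also: cell line used: HPDE-C7K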
[23] = cytotoxicity toward NIH3T3 fibroblasts, dose response, counter-screen, cell-based, ATP luminescence, mouse fibroblasts (AID 2010); format: functional;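 also: cells exposed to compound for about 90 hours before reading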
[24] = molecular target: Sphingosine 1-phosphate receptor 4 (Homo sapiens, UniProt O95977); assay: Fluorescence dose response cell-based high throughput screening assay for antagonists of the Sphingosine 1-Phosphate Receptor 4 (S1P4). [Related pubchem assays: 1524 (Confirmation in triplicates.), 1510 (Primary screen.)]; format: functional
[25] = molecular target: Sphingosine 1-phosphate receptor 1 (Homo sapiens, UniProt P21453); format: functional;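 also: Tango beta-arrestin reporter U2OS cells stimulated with S1P near its EC80; inhibitor potency meaning antagonism of receptor activation by the natural agonist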
Sequence of Sphingosine 1-phosphate receptor 1 (P21453 whole entry): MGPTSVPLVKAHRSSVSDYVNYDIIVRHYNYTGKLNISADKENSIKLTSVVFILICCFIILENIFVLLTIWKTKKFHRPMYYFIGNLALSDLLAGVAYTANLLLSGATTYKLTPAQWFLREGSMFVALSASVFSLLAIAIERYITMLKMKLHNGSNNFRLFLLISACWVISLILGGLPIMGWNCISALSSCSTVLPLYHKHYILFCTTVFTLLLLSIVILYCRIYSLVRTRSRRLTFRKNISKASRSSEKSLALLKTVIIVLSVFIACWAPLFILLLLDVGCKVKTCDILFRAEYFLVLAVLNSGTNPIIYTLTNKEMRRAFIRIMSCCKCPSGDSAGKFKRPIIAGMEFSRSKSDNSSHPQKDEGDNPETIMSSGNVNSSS

Sequence of Sphingosine 1-phosphate receptor 4 (O95977 whole entry): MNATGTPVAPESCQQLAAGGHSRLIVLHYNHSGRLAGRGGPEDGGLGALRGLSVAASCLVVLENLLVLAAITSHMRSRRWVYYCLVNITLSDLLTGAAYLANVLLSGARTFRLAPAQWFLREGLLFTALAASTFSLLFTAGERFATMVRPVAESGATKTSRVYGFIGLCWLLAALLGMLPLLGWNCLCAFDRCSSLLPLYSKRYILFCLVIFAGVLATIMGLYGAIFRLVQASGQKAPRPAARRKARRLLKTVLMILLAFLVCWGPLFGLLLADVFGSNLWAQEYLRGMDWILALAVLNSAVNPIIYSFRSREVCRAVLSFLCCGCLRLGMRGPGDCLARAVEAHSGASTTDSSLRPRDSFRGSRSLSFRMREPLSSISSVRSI
Sequence of Nucleotide-binding oligomerization domain-containing protein 2 (Q9HC29 whole entry, the tested form may be a part): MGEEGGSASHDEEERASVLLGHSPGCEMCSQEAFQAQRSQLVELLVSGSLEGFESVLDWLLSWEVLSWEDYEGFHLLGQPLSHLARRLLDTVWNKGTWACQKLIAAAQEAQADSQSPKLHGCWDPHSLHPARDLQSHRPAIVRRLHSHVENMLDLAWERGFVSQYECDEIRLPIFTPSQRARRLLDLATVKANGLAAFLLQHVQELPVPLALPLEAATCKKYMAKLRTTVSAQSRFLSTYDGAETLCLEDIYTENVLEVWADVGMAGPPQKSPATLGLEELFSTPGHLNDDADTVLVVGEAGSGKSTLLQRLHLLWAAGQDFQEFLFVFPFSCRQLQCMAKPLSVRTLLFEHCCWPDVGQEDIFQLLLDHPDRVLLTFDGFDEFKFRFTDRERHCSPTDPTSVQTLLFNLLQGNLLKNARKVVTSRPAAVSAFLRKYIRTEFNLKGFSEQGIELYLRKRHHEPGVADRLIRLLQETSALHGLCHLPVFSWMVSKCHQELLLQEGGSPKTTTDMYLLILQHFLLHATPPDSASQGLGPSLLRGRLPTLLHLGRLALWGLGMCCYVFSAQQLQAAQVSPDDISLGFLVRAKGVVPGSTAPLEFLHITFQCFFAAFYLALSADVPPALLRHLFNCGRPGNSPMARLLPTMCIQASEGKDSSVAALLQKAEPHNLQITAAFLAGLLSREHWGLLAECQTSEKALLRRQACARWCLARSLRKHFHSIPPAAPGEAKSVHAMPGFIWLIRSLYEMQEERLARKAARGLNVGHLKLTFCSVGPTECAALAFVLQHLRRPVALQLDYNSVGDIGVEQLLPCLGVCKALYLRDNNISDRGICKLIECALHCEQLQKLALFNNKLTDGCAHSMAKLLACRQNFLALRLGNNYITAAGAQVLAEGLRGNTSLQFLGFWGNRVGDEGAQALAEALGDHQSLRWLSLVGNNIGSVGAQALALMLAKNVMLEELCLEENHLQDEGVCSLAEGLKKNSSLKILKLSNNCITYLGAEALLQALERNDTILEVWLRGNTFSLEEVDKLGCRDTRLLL
Sequence of Nonstructural protein 1 (Q194T2 whole entry): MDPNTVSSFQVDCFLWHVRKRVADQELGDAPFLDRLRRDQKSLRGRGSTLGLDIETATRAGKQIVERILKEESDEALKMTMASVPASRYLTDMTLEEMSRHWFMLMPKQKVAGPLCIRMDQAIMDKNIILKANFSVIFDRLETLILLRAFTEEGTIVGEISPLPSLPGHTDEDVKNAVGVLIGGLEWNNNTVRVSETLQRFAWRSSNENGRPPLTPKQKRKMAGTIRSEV

## CC(=O)NC(c1cccc([N+](=O)[O-])c1)c1ccc2cccnc2c1O (configuration not stated)
HEK293 [1]
  EC50: > 20 µM (inactive)
BJ [2]
  EC50: 1.7 µM (inconclusive)
HEK293 [3]
  IC50: 19.8 µM (active)
Cells [4]
  EC50: 4.94 µM (active)
BJ [5]
  EC50: 10.7 µM (active)
HEK293 [6]
  IC50: > 20 µM (inactive)
[7]
  EC50: > 20 µM (inactive)
HEK293 [8]
  IC50: > 20 µM (inactive)
HEK293 [9]
  IC50: > 20 µM (inactive)
[10]
  IC50: 1.35 µM (active)
Cells [11]
  EC50: > 350 µM (not active)
BJ [12]
  EC50: 7.23 µM (inconclusive)
[13]
  EC50: 1.96 µM (inconclusive)
Nonstructural protein 1
  IC50: 9.19 µM (active)
HEK293 [14]
  AC50: 4.67 µM (active)
INS1
  AC50: 0.521 µM (active)
[15]
  AC50: 0.889 µM (active)
[16]
  AC50: 0.887 µM (active)
[17]
  AC50: > 70 µM (inactive)

## CS(=O)(=O)c1nc(-c2cccs2)cc(C(F)(F)F)n1
[18]
  EC50: 4.62 µM (inconclusive)
[19]
  EC50: > 38 µM (not active)
[20]
  EC50: 2.66 µM (active)
[21]
  EC50: 2.57 µM (active)
[22]
  EC50: 2.73 µM (active)
[23]
  EC50: 3.19 µM (active)
[24]
  IC50: 0.989 µM (active)
[25]
  IC50: 22.9 µM (not active)
